Consider 29 compounds from US20260049061A1, “SMALL MOLECULES AS KCNQ2/3 (KV7.2/3) CHANNEL ACTIVATORS AND THEIR MEDICAL USE THEREOF” (Humanwell Pharmaceutical US, Inc., priority 2024, published 2026).

For the first assay, the target named is T1, KNCQ2/3 (Kv7.2/7.3) (Homo sapiens, UniProt O43525+O43526).
T1 construct: host or cells: HEK293
In words: Kv7.2/7.3 (KNCQ2/3) activation assay, QPatch single concentration screen. The format is cell-based. The following applies: increase in current over baseline, HEK293 cells with overexpressed Kv7.2/3, compound 1 μM, steady-state current at +40 mV. On the procedure:
The ability of compounds to potentiate K-currents in HEK293 cells with overexpressed KNCQ2/3 (Kv7.2/7.3) was assessed using patch clamp on the QPatch automated screening platform.
Cell Line: The HEK293 cell line with overexpressed Kv7.2/7.3 was obtained from ICE Bioscience Inc. These HEK cells have been engineered to overexpress the Kv7.2/3 ion channels.
Cell Culture: Cells were maintained in the media containing DMEM (Corning, cat. #10-013-CV), 10% FBS (Gibco, cat. #10099141C), 800 μg/mL G418 (GPC, cat. #AK108) and 200 μg/mL hygromycin B (Solarbio, cat. #H8080). The cells were incubated at 37° C. in a humidified incubator under 5% carbon dioxide. Cells were grown in 6 cm dishes to ˜80% confluency. Currents were recorded 24 hours after channel induction.
Compound Plates: Test compounds were prepared by performing serial dilutions in DMSO (Sigma cat #D4540). Final dilutions were made in external recording solution with a final DMSO concentration of 0.1% DMSO. For single concentration screens each plate had 10 μM retigabine (Selleck Chemicals, cat. #S4733) as a positive control.
Electrophysiology: External solution contained 140 mM NaCl (Sigma cat. #S5886), 3.5 mM KCl (Sigma cat. #P5405), 1 mM MgCl2·6H2O (Sigma cat. #M2393), 2 mM CaCl2·2H2O (Sigma cat. #C7902), 10 mM D-Glucose (Sigma cat. #G8270), 10 mM HEPES (Santa Cruz cat. #SC-29097A), 1.25 mM NaH2PO4·2H2O, pH was adjusted to 7.4 with NaOH. Internal solution contained 125 mM K-Aspartic (Sigma cat. #G4500), 20 mM KCl, 10 mM EGTA (Sigma cat. #E3889), 1 mM MgCl2·6H2O, 5 mM Mg-ATP (Sigma cat. #A9187), 5 mM HEPES, pH was adjusted to 7.2 with KOH.
On the day of the experiment cells are washed with the external solution and harvested with 0.25% Trypsin EDTA (Gibco cat. #25200-072). Cells were then centrifuged at 1000 rpm/min for 5 minutes and resuspended in the external solution at ˜2.5×10^6 cells/mL. The cells were stirred with an equilibrium sharker for 20 minutes at room temperature before experiments started.
Potassium channel activity was measured on the QPatch 48X (Sophion Bioscience) using QPlates with 48-wells plate. The KCNQ current was recorded when the voltage was held at −80 mV for 3s, then stepped to −30 mV for 500 ms and back to […]. The process was repeated with an increment of 10 mV between −80 mV and +40 mV. Each cell was taken as an independent experiment and only one compound was tested per well.
Single Concentration Screen: Baseline conditions were obtained by recording 5 sweeps in the external solution only, this was repeated for three applications of the external solution. The effect of test compounds on elicited current was then assessed by recording 5 sweeps in the presence of a 1 μM compound solution. The steady-state current at the end of the 2 s pulse to +40 mV was measured to determine the fold increase from baseline.
(Patch clamp records ionic current or voltage across a cell membrane.)
With `C=CCN1CCn2nc(NC(=O)CC(C)(C)C)c(-c3ccc(F)cc3)c2C1` [Compound 44], the activity at 1 µM was 100 to 200%. Consider `CC(C)(C)CC(=O)Nc1nn2c(c1-c1ccc(F)cc1)CC1(CC2)CC(F)(F)C1` [Compound 55], for which the activity at 1 µM was no less than 300%. On the same count and under the same terms, in the case of `CC(C)(C)CC(=O)Nc1nn2c(c1-c1cccnc1)CC(C(F)(F)F)CC2` (stereo not drawn) [Compound 16] it was 100 to 200%. For the compound `O=C(CC12CC(C1)C2)Nc1nn2c(c1-c1ccc(F)cc1)CC(C(F)(F)F)CC2` (stereo not drawn) [Compound 33], the activity at 1 µM is no less than 300%. The same measure, in the same setting: the figure for `CC(C)(C)CC(=O)Nc1nc2n(c1-c1ccc(OC(F)(F)F)cc1)CCCC2` [Compound 54] is 200 to 300%; for `CC(C)(C)CC(=O)Nc1nn2c(c1C1CCC1)CCCC2` [Compound 8] it is 200 to 300%. On to `CCn1c(NC(=O)CC(C)(C)C)nc2c1CCCC2` [Compound 65], for which the activity at 1 µM lay in the range of 200 to 300%. Same read-out and setting: in the case of `CC(C)(C)CC(=O)Nc1nn2c(c1C1=CCCCC1)CC(C(F)(F)F)CC2` (stereo not drawn) [Compound 14] it was 200 to 300%; in that of `CC(C)(C)CC(=O)Nc1nn2c(c1-c1ccc(F)cc1)CN(C1CC1)CC2` [Compound 43], 200 to 300%; in that of `CC1(CC(=O)Nc2nn3c(c2-c2ccc(F)cc2)CC(C(F)(F)F)CC3)CC1` (stereo not drawn) [Compound 35], no less than 300%.

In the case of `CC(C)(C)CC(=O)Nc1nc2n(c1C1CCCCC1)CCCC2` [Compound 53], the activity at 1 µM fell in the range of 100 to 200%. In the case of `CC(C)(C)CC(=O)Nc1nc2ncccc2n1-c1ccc(F)cc1` [Compound 60], the activity at 1 µM lay in the range of 100 to 200%. Turning to `CCn1c(NC(=O)CC(C)(C)C(F)(F)F)nc2c1CCCC2` [Compound 64], the activity at 1 µM was 100 to 200%.

Take `COC1CCn2nc(NC(=O)CC(C)(C)C)c(-c3ccc(F)cc3)c2C1` (stereo not drawn) [Compound 12]: the activity at 1 µM was in the range of 200 to 300%. With `O=C(CC1CC(F)(F)C1)Nc1nn2c(c1-c1ccc(F)cc1)CC(C(F)(F)F)CC2` (stereo not drawn) [Compound 32], the activity at 1 µM is no less than 300%.

With `CC(C)(C)CC(=O)Nc1nc2c(n1C(C)(C)C)CCCC2` [Compound 1], the activity at 1 µM fell in the range of 100 to 200%.

With `CC(C)(F)CC(=O)Nc1nn2c(c1-c1ccc(F)cc1)CC(C(F)(F)F)CC2` (stereo not drawn) [Compound 36], the activity at 1 µM is no less than 300%. On the same count and under the same terms, the figure for `CC(C)(CC(=O)Nc1nn2c(c1-c1ccc(F)cc1)CN(C1CC1)CC2)C(F)(F)F` [Compound 47] is 100 to 200%; for `O=C(CC1CSC1)Nc1nn2c(c1-c1ccc(F)cc1)CC(C(F)(F)F)CC2` (stereo not drawn) [Compound 37] it is 100 to 200%; for `CC(C)(C)CC(=O)Nc1nc2c(n1C1CCC1)CCCC2` [Compound 3] it is 100 to 200%.

Take `CC(C)(C)CC(=O)Nc1nn2c(c1C1CCC1)CC(C(F)(F)F)CC2` (stereo not drawn) [Compound 20]: the activity at 1 µM is no less than 300%. The same measure, in the same setting: the figure for `CC(C)(C)CC(=O)Nc1nn2c(c1-c1ccc(F)cc1)CN(C(F)(F)F)CC2` [Compound 7] is 100 to 200%; for `CC(C)(CC(=O)Nc1nn2c(c1-c1ccc(F)cc1)CC(C(F)(F)F)CC2)C(F)(F)F` (stereo not drawn) [Compound 10] it is no less than 300%; for `CC(C)(C)CC(=O)Nc1nn2c(c1C1CCCCC1)CC(C(F)(F)F)CC2` (stereo not drawn) [Compound 15] it is no less than 300%. Still for that read-out and setting: in the case of `O=C(CCC(F)(F)F)Nc1nn2c(c1-c1ccc(F)cc1)CC(C(F)(F)F)CC2` (stereo not drawn) [Compound 34] it was 200 to 300%.

The subject of a further assay is PTZ-induced epileptic model using ICR mice. Kind of assay: PTZ-induced epilepsy model in ICR mice. The format is in vivo. The following applies: male ICR mice, 10 mg/kg oral 30 min before PTZ 100 mg/kg i.p., recorded for 30 min. On the procedure: SPF-grade male ICR mice (22-24 g) were purchased from Human Silaike Jingda Laboratory Animal Co. Ltd., China and sent to the housing facility after veterinary inspection to adapt to the rearing environment. The mice were housed in cages for 3 days under suitable conditions (temperature at 22±1° C., humidity at 40-70%, sufficient water and food, 12 hours of daylight). On the formal test day, all mice were weighed, and those meeting the weight criteria were numbered at the base of their tails. […] Animals were orally administered compound 34 (10 mg/kg) 30 min before the i.p. injection of PTZ (100 mg/kg, Sigma, USA) for epilepsy modeling. The seizure response of the mice was evaluated based on the epilepsy grading criteria. The latency and incidence rate of each seizure grade were recorded for 30 min. After the experiment, the test animals were euthanized using carbon dioxide. The results are shown in Table 2 and FIG. 1 respectively.
On to `CC(C)CS(=O)(=O)Nc1nn2ccc(Cl)cc2c1-c1ccc(F)cc1` [Compound 62], for which the “Latency to Racine IV Seizure” value turned out to be 636 s and the “Latency to Racine VI Seizure” value is 1409 s. Regarding `CC(C)(CC(=O)Nc1nn2c(c1-c1ccc(F)cc1)CCCC2)C(F)(F)F` [Compound 38], the “Latency to Racine IV Seizure” value is recorded as 784 s and the “Latency to Racine VI Seizure” value is recorded as 1320 s. On the same counts, the results for `O=C(CCC(F)(F)F)Nc1nn2c(c1-c1ccc(F)cc1)CC(C(F)(F)F)CC2` (stereo not drawn) [Compound 34] are 1393 s and 1658 s.

In the next assay the test system is formalin model using SD rats. Kind of assay: 2% formalin rat model (paw licking). Particulars: male SD rats, 10 mg/kg oral 15 min before intraplantar 2.0% formalin, paw licking monitored for 60 min. The assay is classed as in vivo. On the procedure: SPF male SD rats (170-190 g) were purchased from Human Silaike Jingda Laboratory Animal Co. Ltd., China. The rats were housed in cages for 3 days under suitable conditions (temperature at 22±1° C., humidity at 40-70%, sufficient water and food, 12 hours of daylight). The rats with a body weight of 220-240 g were numbered for further experiments. The rats were placed in the ZH-PAN801 automated rodent behavioral tracking system (Anhui Zhenghua Biologic Apparatus Facilities) for 60 min per day for an additional 3 days.
Paw licking behavior, a correlation of spontaneous pain, was tracked using the ZH-PAN801 automated rodent behavioral tracking system that can differentiate behaviors and locomotor activity of individually housed rats. The ZH-PAN801 system consists of sensor platforms which rest on two orthogonally placed force transducers and a third fixed point attached to a base plate. Each force transducer transforms the mechanical vibrations caused by animal movement into electrical signals, which are amplified, filtered, and digitized by the ZH-PAN801 system. Characteristic movements have their own unique vibrational patterns which the ZH-PAN801 software can distinguish. The cylinder cages (75 mm (radius)×310 mm (height)) consist of two halves to sensitize detection of vibrations. Thus, the base is separate from the sides, the lid, and sits directly on the sensor platform, while the sides and the lid hang from supports on the base plate.
Rats were equipped with the force transducer 15 min before the dosing. Animals were orally administered compound 21 (10 mg/kg) 15 min before the formalin injection. Rats were administered an intraplantar injection of formalin (50 μL, 2.0%, Sigma, USA) into the dorsal surface of the hindpaw attached with the force transducer to induce acute pain and placed in the automated rodent behavioral tracking system. Paw licking behavior was monitored for 60 min using the ZH-PAN801 behavior tracking system. The duration of paw licking behavior (in minutes) was collected from two distinctive phases, the early nociceptive phase occurring 0-10 min after formalin injection and the late phase thought to be associated with central sensitization, which peaks 11-60 min after formalin injection. Treatment effects were compared to vehicles by an unpaired t-test and one-way ANOVA using Graph Pad 9.0. The results are shown in Table 3 and FIG. 2 respectively.
For `CC(C)CS(=O)(=O)Nc1nn2ccc(Cl)cc2c1-c1ccc(F)cc1` [Compound 62], the “% MPE (10 mpk)” value came to 89%. Turning to `CC(C)(CC(=O)Nc1nn2c(c1-c1ccc(F)cc1)C[C@@H](C(F)(F)F)CC2)C(F)(F)F` [Compound 24], the “% MPE (10 mpk)” value is given as 97%. For `CC(C)(C)n1c(NC(=O)CC(C)(C)C(F)(F)F)nc2cc3c(cc21)CNC3` [Compound 58], the “% MPE (10 mpk)” value is reported as 89%. For the compound `CC(C)(CC(=O)Nc1nn2c(c1-c1ccc(F)cc1)CCCC2)C(F)(F)F` [Compound 38], the “% MPE (10 mpk)” value is 87%. Same read-out and setting: in the case of `O=C(CCC(F)(F)F)Nc1nn2c(c1-c1ccc(F)cc1)CC(C(F)(F)F)CC2` (stereo not drawn) [Compound 34] it was 65%.
